In patent US8497083B2, “Fructosyl amino acid oxidase” (priority 2009, dated 2013):

Target: T1, fructosyl amino acid oxidase from Pichia sp. N1-1 (N1-1 FAOD), wild type, SEQ ID NO: 2 (Pichia sp. N1-1, UniProt Q3L8U0)
T1 construct: 427 aa
T1 sequence (Q3L8U0 1-427): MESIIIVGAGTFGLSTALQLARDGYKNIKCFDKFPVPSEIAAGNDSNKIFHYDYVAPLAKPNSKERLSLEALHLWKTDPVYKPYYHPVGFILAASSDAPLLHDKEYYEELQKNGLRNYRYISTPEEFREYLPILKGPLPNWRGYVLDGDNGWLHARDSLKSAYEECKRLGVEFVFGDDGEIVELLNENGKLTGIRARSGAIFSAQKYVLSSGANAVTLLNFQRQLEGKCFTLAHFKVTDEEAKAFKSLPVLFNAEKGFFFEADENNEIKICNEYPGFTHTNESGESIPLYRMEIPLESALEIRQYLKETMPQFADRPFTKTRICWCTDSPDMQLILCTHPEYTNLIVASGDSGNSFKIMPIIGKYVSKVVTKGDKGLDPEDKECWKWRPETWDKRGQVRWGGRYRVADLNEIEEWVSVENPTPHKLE
Assay: Dehydrogenase activity kinetics (mPMS/DCIP), N1-1 FAOD wild type
Format: biochemical
Conditions: mPMS/DCIP over 4AA/TODB/POD
From the text: As used herein, “dehydrogenase activity” is an enzymatic activity (Vmax) of the fructosyl amino acid oxidase to catalyze oxidation of fructosyl amino acid to generate 2-keto-D-glucose and the corresponding amino acid while utilizing an electron mediator other than oxygen as an electron acceptor. The dehydrogenase activity may be assayed by measuring the amount of electrons transferred to the mediator using, for example, one of mPMS/DCIP (1-methoxy-5-methylphenazinium methylsulfate/2,6-dichloroindophenol), cPES (trifluoro-acetate-1-(3-carboxy-propoxy)-5-ethyl-phenanzinium, NA BM31—1144 (N,N-bis-(hydroxyethyl)-3-methoxynitrosoaniline hydrochloride, NA BM31—1008 (N,N-bis-hydroxyethyl-4-nitrosoaniline) and N—N-4-dimethyl-nitrosoaniline.
As used herein in the context of the relative or quantitative activity, the dehydrogenase activity is specifically defined to be the mole amount of the substrate (fructosyl amino acid) oxidized per unit time measured by the amount of electrons transferred to the mediator at 25° C. in 10 mM PPB (pH 7.0), 0.6 mM DCIP, and 6 mM methoxy PMS (mPMS).
Escherichia coli BL21 (DE3) cells harboring expression vectors of N1-1 FAOD (SEQ ID NO: 2) mutants were grown in 150 ml of LB medium containing 50 μg/ml kanamycin at 37° C. […] The formation of quinoneimine dye was measured spectrophotometrically at 546 nm. […]

For `CC(C)[C@H](NCC1(O)OC[C@@H](O)[C@@H](O)[C@@H]1O)C(=O)O` (some centres unmarked) [f-αVal, fructosyl valine], the “B/A (Vmax dehydrogenase/Vmax oxidase)” value (crude preparation) was 1.2 and the “B/A (Vmax dehydrogenase/Vmax oxidase)” value (purified enzyme) was 1.1.
